# In US11014904B2, “1,2,4-triazine-3-amine derivative, preparation method therefor, and use thereof in medicine” (Jiangsu Hengrui Medicine Co., Ltd., priority 2017, dated 2021):
# Molecular target: T1, adenosine A2b receptor (A2bR) (Homo sapiens, UniProt P29275)
# T1 construct: expressed in transfected cells; host or cells: CHO-K1
# T1 sequence (P29275 1-332): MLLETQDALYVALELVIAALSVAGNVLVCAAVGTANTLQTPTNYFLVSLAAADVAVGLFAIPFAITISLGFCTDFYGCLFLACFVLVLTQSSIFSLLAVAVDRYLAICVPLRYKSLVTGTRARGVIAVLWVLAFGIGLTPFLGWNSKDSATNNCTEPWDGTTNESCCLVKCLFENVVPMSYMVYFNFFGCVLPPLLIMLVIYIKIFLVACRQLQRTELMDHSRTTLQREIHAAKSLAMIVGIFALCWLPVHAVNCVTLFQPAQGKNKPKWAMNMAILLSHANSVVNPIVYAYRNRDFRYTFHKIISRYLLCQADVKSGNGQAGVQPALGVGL
# Assay: Inhibition of the adenosine A2b receptor cAMP signaling pathway in CHO-K1/A2bR cells (HTRF)
# Type: cell-based
# Conditions: ethyl carbazole 1 μM, Table 2
# Description: Determination of the inhibition activity of the compounds of the present invention on the adenosine A2a receptor (A2aR) cAMP signaling pathway, the adenosine A2b receptor (A2bR) cAMP signaling pathway, the adenosine A1 receptor (A1R) cAMP signaling pathway and the adenosine A3 receptor (A3R) cAMP signaling pathway.
# The inhibition activity of the compounds of the present invention on the adenosine A2a receptor (A2aR) cAMP signaling pathway, the adenosine A2b receptor cAMP signaling pathway, the adenosine A1 receptor cAMP signaling pathway and the adenosine A3 receptor cAMP signaling pathway was determined by the following method. The experimental method is briefly described as follows:
# 2.2 Adenosine A2b Receptor
# CHO-K1/A2bR cells were cultured in DMEM/F12 medium containing 10% fetal bovine serum and 1 mg/ml G418. The cells were digested with the cell separation buffer during the experiment. The cells were resuspended in the balanced salt buffer containing 20 mM HEPES and 0.1% bovine serum albumin and counted, and the cell density was adjusted to 10^6 cells/ml. In the 384-well plate, each well was added with 5 μl of cell suspension, and 2.5 μl of test compound (4× concentration) formulated with the balanced salt buffer containing 20 mM HEPES, 0.1% bovine serum albumin, 54 μM rolipram and 2.7 U/ml adenosine deaminase, and the plate was incubated at room temperature for 30 minutes. Each well was then added with 2.5 μl of […] (4× concentration) (Torcis, 1691/10) formulated with the balanced salt buffer containing 20 mM HEPES, 0.1% bovine serum albumin, 54 μM rolipram and 2.7 U/ml adenosine deaminase, and the plate was incubated at room temperature for 30 minutes. The final concentrations of the compounds were: 100000, 10000, 1000, 100, 10, 1, 0.1 and 0 nM. The final concentration of […] was 1 μM. Intracellular cAMP concentration was detected with the cAMP dynamic 2 kit. cAMP-d2 and Anti-cAMP-Eu-Cryptate were diluted respectively with the cAMP lysis buffer at a ratio of 1:4. Each well was added with 5 μl of diluted cAMP-d2, followed by addition of 5 μl of diluted Anti-cAMP-Eu-Cryptate, and the plate was incubated at room temperature in the dark for 1 hour. The HTRF signal values were read by the PHERAstar multi-function microplate reader.
row,SMILES,IC50
1,"Cc1ncnc2ccc(-c3nnc(N)nc3-c3ccccc3)cc12 [Example 15, 6-(4-Methylquinazolin-6-yl)-5-phenyl-1,2,4-triazin-3-amine]",7 nM
2,"Cc1ccnc2c(F)cc(-c3nnc(N)nc3-c3ccccc3)cc12 [Example 16, 6-(8-Fluoro-4-methylquinolin-6-yl)-5-phenyl-1,2,4-triazin-3-amine]",18 nM
3,"Cc1ccnc2ccc(-c3nnc(N)nc3-c3ccccc3F)cc12 [Example 17, 5-(2-Fluorophenyl)-6-(4-methylquinolin-6-yl)-1,2,4-triazin-3-amine]",22 nM
4,"[2H]C([2H])([2H])c1ncnc2ccc(-c3nnc(N)nc3-c3ccc(F)cc3)cc12 [Example 52, 5-(4-Fluorophenyl)-6-(4-(methyl-d3)quinazolin-6-yl)-1,2,4-triazin-3-amine]",14 nM

# More lines, in order of falling IC50, values ahead:
row,IC50,SMILES
1,47 nM,"Nc1nnc(-c2ccc3ncccc3c2)c(-c2ccccc2)n1 [Example 3, 5-Phenyl-6-(quinolin-6-yl)-1,2,4-triazin-3-amine]"
2,25 nM,"Cc1ncnc2ccc(-c3nnc(N)nc3-c3ccc(F)cc3)cc12 [Example 19, 5-(4-Fluorophenyl)-6-(4-methylquinazolin-6-yl)-1,2,4-triazin-3-amine]"
3,25 nM,"Cc1ncnc2c(F)cc(-c3nnc(N)nc3-c3ccccc3)cc12 [Example 45, 6-(8-Fluoro-4-methylquinazolin-6-yl)-5-phenyl-1,2,4-triazin-3-amine]"
4,7 nM,"[2H]C([2H])([2H])c1ccnc2ccc(-c3nnc(N)nc3-c3ccc(F)cc3)cc12 [Example 22, 5-(4-Fluorophenyl)-6-[4-(trideuteromethyl)-6-quinolinyl]-1,2,4-triazin-3-amine]"
